Measured values from US20060094676A1, “Compositions and methods for treating cancer using compositions comprising an inhibitor of endothelin receptor activity” (priority 2004, published 2006).
“Also recorded” adds a separate entry of the source.

Test system: SK-MEL-28 and LN-met cell lines
Experiment: cDNA microarray analysis of differentially regulated genes
Assay type: cell-based, human
Conditions: SK-MEL-28 and LN-met after 2 days BQ788, confirmed by real-time RT-PCR
Description: Cells were cultured in the presence of BQ788 or its solvent (HCO60) for 2 days and then lysed and subjected to RNA extraction using SV Total RNA isolation kit (Promega). Two rounds of RNA amplification were conducted using RiboAmp™ RNA Amplification kit (Arcturus). Labeled cDNA was obtained by reverse transcription of 6 μl amplified RNA and incorporation of Cy3-dCTP (5-Amino-propargyl-2′-dexoycytidine 5′-triphosphate coupled to Cy3 fluorescent dye) and Cy5-dCTP (5-Amino-propargyl-2′-dexoycytidine 5′-triphosphate coupled to Cy5 fluorescent dye) (Amersham Biosciences). Human 10k arrays containing PCR products spotted onto glass slides were obtained from the Lausanne DNA Array Facility (DAF). Hybridization of labeled cDNA to microarrays was preformed for 16 h at 64° C. in a humidified chamber (Corning Costar). Scanning was done in a Scanarray 4000 scanner (Perkin Elmer). Image analysis was preformed using the ScanAlyse program (version 2.5). Data analysis was done using the R package: Statistics for Microarray analysis containing com.braju.sma package (www.r-project.org).
To explore the possible mechanisms that underlie the loss of viability of metastatic but not primary melanoma cells in response to ETRB antagonism, changes in gene expression profiles of BQ788-treated and untreated cells were investigated by cDNA microarray analysis. […]

SMILES: CCCC[C@@H](NC(=O)[C@@H](Cc1cn(C(=O)OC)c2ccccc12)NC(=O)[C@H](CC(C)(C)C)NC(=O)N1[C@H](C)CCC[C@@H]1C)C(=O)O [BQ788, N-cis-2,6-dimethylpiperidinocarbonyl-L-γ-methylleucyl-D-1-methoxycarbonyltrptophanyl-D-norleucine]
- Down regulated gene: BCL2-A1; also recorded: PARP-3; also recorded: Gravin; also recorded: EDNRB
- Up regulated gene: VEGF and HIF-1α
